Test system: Male Wistar rats
Assay: Inhibition of hind leg scratching behaviour induced in rats by a pruritogenic agent (5-methoxytryptamine hydrochloride)
Type: in vivo, rat
Details: test compound by subcutaneous injection in aqueous micelle formulation; pruritogen 5-methoxytryptamine hydrochloride 4 mg/3 mL/kg s.c.; hindleg scratching score totalled after 25 minutes vs control group
Description: The compounds of the invention are evaluated for their activity as antipruritic agents by measuring their ability to inhibit the hind leg scratching behaviour induced in rats by the administration of a known pruritogenic agent. These studies are based on the procedure described by Berendsen and Broekkamp in the European Journal of Pharmacology, 1991, 194, 201. The test is performed as follows:
Male Wistar rats (approximately 150 g body weight) are challenged with a pruritogen by subcutaneous injection of 5-methoxytryptamine hydrochloride (4 mg/3 mL/kg) dissolved in physiological saline into the scruff of the neck. At this dose a constant and quantifiable hindleg scratching response lasting up to 90 minutes is obtained.
The test compound is administered to the test animals by subcutaneous injection in an aqueous micelle formulation. The test compound is prepared in the following manner. The compound is dissolved in a vehicle (composition v/v %: glycerol formal, 24; tween 80, 17; benzyl alcohol, 1.5 and purified water to 100) then seven parts purified water is added to three parts of the above vehicle to give the aqueous micelle formulation. […]
After the pruritogen challenge has been administered, hindleg scratching is scored for each animal by recording the presence or absence of scratching during each 30 second interval as 1 or 0 scored respectively. […]

CCCCCCN1CC[C@@](C)(c2ccc(NC(C)=O)c(O)c2)[C@H](C)C1 (racemic) [Example 8, (±)-N-Hexyl-trans-3,4-dimethyl-4-(4-acetylamino-3-hydroxyphenyl)piperidine]
anti-pruritic activity: display anti-pruritic activity

Reference: patent US6479516B1, “4-arylpiperidine derivatives for the treatment of pruritus” (Pfizer Inc, priority 1999, dated 2002)
